The record followed here is patent publication US8575364B2, “Modulators of serotonin receptor” (Janssen Pharmaceutica NV, priority 2008, dated 2013).

The experiment has as its target rat 5-HT7 receptors (Rattus norvegicus (Rat), UniProt P32305). The experiment in a line: r5-HT7 competitive radioligand binding assay ([3H]5-CT). As to conditions: membrane fractions of HEK-293 cells recombinantly expressing rat 5-HT7. The method, then: Compound affinity for the rat 5-HT7 receptor subtype was evaluated by competitive radioligand binding assays using 5-carboxamido[^3H]tryptamine ([^3H]5-CT) (Amersham Biosciences, cat. 90000403) detection. HitHunter™ cAMP assays are in-vitro based competitive immunoassays. […] Cells were pre-incubated with test compounds for 10 minutes. For agonistic testing, the concentration of test compound that produced a half-maximal response is represented by the EC50 value. Compounds were assayed in their free form or as salts, as indicated in the Examples section above.

Structures can show the parent of a compound that is named as a salt.

Chain of rat 5-HT7 receptors (P32305 1-435): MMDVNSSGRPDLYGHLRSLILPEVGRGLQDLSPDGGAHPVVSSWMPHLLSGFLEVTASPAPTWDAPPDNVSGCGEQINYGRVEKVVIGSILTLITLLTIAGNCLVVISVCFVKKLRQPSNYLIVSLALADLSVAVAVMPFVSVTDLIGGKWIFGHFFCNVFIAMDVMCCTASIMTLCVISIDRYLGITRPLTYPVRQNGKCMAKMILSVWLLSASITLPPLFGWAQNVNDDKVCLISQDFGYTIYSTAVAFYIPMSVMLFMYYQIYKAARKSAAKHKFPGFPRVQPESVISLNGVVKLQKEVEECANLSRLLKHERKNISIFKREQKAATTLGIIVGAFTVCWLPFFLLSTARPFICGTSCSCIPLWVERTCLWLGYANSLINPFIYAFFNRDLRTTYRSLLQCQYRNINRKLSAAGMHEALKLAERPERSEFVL

`Cc1cccc(-c2ccc(Cl)c(OC3CNC3)c2)c1` [Example 27, 3-(4-Chloro-3′-methyl-biphenyl-3-yloxy)-azetidine trifluoroacetate]: the Ki came out at 410 nM.

`CCN(CC)C(=O)c1ccc(-c2ccccc2C(F)(F)F)cc1OC1CNC1` [Example 37, 3-(Azetidin-3-yloxy)-2′-trifluoromethyl-biphenyl-4-carboxylic acid diethylamide]: the Ki came out at 2270 nM.

As for `COc1ccc(-c2cccc(F)c2C)cc1C1CCNC1` (racemic) [Example 44, (±)-3-(3′-Fluoro-4-methoxy-2′-methyl-biphenyl-3-yl)-pyrrolidine], the Ki is 19 nM.

Regarding `COc1ccc(-c2ccccc2)cc1OC1CNC1` [Example 15, 3-(4-Methoxy-biphenyl-3-yloxy)-azetidine], the Ki stood at 120 nM.

Take `COc1ccc(-c2ccccc2Cl)cc1OC1CN(C(C)C)C1` [Example 18, 3-(2′-Chloro-4-methoxy-biphenyl-3-yloxy)-1-isopropyl-azetidine trifluoroacetate]: the inhibition constant (Ki) worked out at 533 nM.

For the compound `COc1ccc(-c2cc(C)ccc2C)cc1OC1CNC1` [Example 16, 3-(4-Methoxy-2′,5′-dimethyl-biphenyl-3-yloxy)-azetidine], the Ki is 114 nM.

For the compound `Clc1ccc(-c2ccccc2C2CCNC2)cc1` (stereo not shown) [Example 56, 3-(4′-Chloro-biphenyl-2-yl)-pyrrolidine], the Ki came to 180 nM.

In the case of `Cc1cc(-c2ccc(Cl)cc2OC2CNC2)ccc1F` [Example 41, 3-(4-Chloro-4′-fluoro-3′-methyl-biphenyl-2-yloxy)-azetidine], the Ki was determined as 470 nM.

For `Cc1ccccc1-c1ccccc1C1CCN(C)C1` (racemic) [Example 60, (±)-1-Methyl-3-(2′-methyl-biphenyl-2-yl)-pyrrolidine], the Ki stood at 330 nM.

As for `Cc1cc(-c2ccc(Cl)cc2C2CCNC2)ccc1F` (racemic) [Example 66, (±)-3-(4-Chloro-4′-fluoro-3′-methyl-biphenyl-2-yl)-pyrrolidine], the Ki came out at 380 nM.

On to `COc1ccc(-c2ccc(F)c(C)c2)cc1OC1CNC1` [Example 12, 3-(4′-Fluoro-4-methoxy-3′-methyl-biphenyl-3-yloxy)-azetidine], for which the Ki turned out to be 770 nM.

For the compound `COc1ccc(-c2ccc(C)cc2)cc1OC1CNC1` [Example 11, 3-(4-Methoxy-4′-methyl-biphenyl-3-yloxy)-azetidine], the Ki worked out at 760 nM.

Regarding `COc1ccc(-c2c(Cl)cccc2C(F)(F)F)cc1OC1CNC1` [Example 10, 3-(2′-Chloro-4-methoxy-6′-trifluoromethyl-biphenyl-3-yloxy)-azetidine trifluoroacetate], the Ki stood at 112 nM.

On to `CCOc1ccc(-c2ccccc2C)cc1OC1CNC1` [Example 32, 3-(4-Ethoxy-2′-methyl-biphenyl-3-yloxy)-azetidine hydrochloride], for which the Ki amounted to 454 nM.

Consider `COc1ccc(-c2ccccc2C)cc1C1CCNC1` (racemic) [Example 43, (±)-3-(4-Methoxy-2′-methyl-biphenyl-3-yl)-pyrrolidine], for which the Ki worked out at 5.46 nM.

In the case of `Cc1cccc(-c2ccccc2C2CCNC2)c1` (racemic) [Example 52, (±)-3-(3′-Methyl-biphenyl-2-yl)-pyrrolidine], the Ki is 80.2 nM.

As for `COc1ccc(C)cc1-c1ccccc1C1CCNC1` (racemic) [Example 63, (±)-3-(2′-Methoxy-5′-methyl-biphenyl-2-yl)-pyrrolidine], the Ki turned out to be 1700 nM.

Consider `COc1ccccc1-c1ccccc1C1CCNC1` (racemic) [Example 61, (±)-3-(2′-Methoxy-biphenyl-2-yl)-pyrrolidine], for which the Ki was 300 nM.

For `Cc1ccccc1-c1ccc(OCC2CC2)c(OC2CNC2)c1` [Example 35, 3-(4-Cyclopropylmethoxy-2′-methyl-biphenyl-3-yloxy)-azetidine], the Ki worked out at 755 nM.

Consider `Cc1ccc(-c2ccccc2C2CCNC2)cc1C` (racemic) [Example 57, (±)-3-(3′,4′-Dimethyl-biphenyl-2-yl)-pyrrolidine], for which the Ki amounted to 55.9 nM.

On to `Cc1ccc(-c2ccc(Cl)cc2OC2CNC2)cc1C` [Example 42, 3-(4-Chloro-3′,4′-dimethyl-biphenyl-2-yloxy)-azetidine], for which the Ki is 210 nM.

`Cc1ccc(-c2ccccc2C2CCN(C)C2)cc1` (racemic) [Example 55, (±)-1-Methyl-3-(4′-methyl-biphenyl-2-yl)-pyrrolidine]: the Ki turned out to be 430 nM.

Consider `Cc1ccccc1-c1cccc(OC2CNC2)c1` [Example 23, 3-(2′-Methyl-biphenyl-3-yloxy)-azetidine], for which the Ki came to 67 nM.

Take `Cc1cccc(-c2cccc(OC3CNC3)c2)c1` [Example 22, 3-(3′-Methyl-biphenyl-3-yloxy)-azetidine]: the Ki was 752 nM.

As for `Cc1ccccc1-c1ccc(OC(C)C)c(OC2CNC2)c1` [Example 36, 3-(4-Isopropoxy-2′-methyl-biphenyl-3-yloxy)-azetidine], the Ki was 10000 nM.

For `Cc1ccccc1-c1ccc(OCC(F)(F)F)c(OC2CNC2)c1` [Example 33, 3-[2′-Methyl-4-(2,2,2-trifluoro-ethoxy)-biphenyl-3-yloxy]-azetidine], the Ki was determined as 525 nM.

For `COc1ccccc1-c1ccccc1C1CCN(C)C1` (racemic) [Example 62, (±)-3-(2′-Methoxy-biphenyl-2-yl)-1-methyl-pyrrolidine], the Ki worked out at 730 nM.

On to `Clc1ccc(-c2ccccc2Cl)cc1OC1CNC1` [Example 24, 3-(4,2′-Dichloro-biphenyl-3-yloxy)-azetidine trifluoroacetate], for which the Ki is 8.89 nM.

Regarding `COc1ccc(-c2ccccc2C(F)(F)F)cc1OC1CCNCC1` [Example 69, 4-(4-Methoxy-2′-trifluoromethyl-biphenyl-3-yloxy)-piperidine], the Ki stood at 59 nM.

Take `FC(F)(F)c1ccccc1-c1cccc(OC2CNC2)c1` [Example 20, 3-(2′-Trifluoromethyl-biphenyl-3-yloxy)-azetidine]: the Ki was 25.5 nM.

With `COc1ccc(-c2ccccc2OC(F)(F)F)cc1OC1CNC1` [Example 7, 3-(4-Methoxy-2′-trifluoromethoxy-biphenyl-3-yloxy)-azetidine], the Ki was 10 nM.

Consider `COc1ccc(-c2cccc(C)c2)cc1OC1CNC1` [Example 13, 3-(4-Methoxy-3′-methyl-biphenyl-3-yloxy)-azetidine], for which the inhibitory constant (Ki) was 1000 nM.

As for `COc1ccc(-c2ccccc2)cc1C1CCNC1` (racemic) [Example 49, (±)-3-(4-Methoxy-biphenyl-3-yl)-pyrrolidine], the Ki came out at 130 nM.

Turning to `COc1ccc(-c2ccccc2OC(F)(F)F)cc1C1CCNC1` (racemic) [Example 48, (±)-3-(4-Methoxy-2′-trifluoromethoxy-biphenyl-3-yl)-pyrrolidine], the Ki was 19.8 nM.

`N#Cc1ccc(-c2ccccc2)cc1OC1CNC1` [Example 29, 3-(Azetidin-3-yloxy)-biphenyl-4-carbonitrile]: the Ki came out at 10000 nM.

As for `Cc1ccc(-c2ccccc2C2CCNC2)cc1` (racemic) [Example 54, (±)-3-(4′-Methyl-biphenyl-2-yl)-pyrrolidine], the Ki was found to be 120 nM.

For `COc1ccc(-c2ccccc2)cc1OC1CCNCC1` [Example 68, 4-(4-Methoxy-biphenyl-3-yloxy)-piperidine], the Ki was determined as 1480 nM.

One may read the Ki as a measure of affinity in units of concentration, obtained from inhibition or displacement.
